Assay results as given in ChEMBL document CHEMBL3853276, “Alkaloids from Hippeastrum argentinum and Their Cholinesterase-Inhibitory Activities: An in Vitro and in Silico Study” (J Nat Prod, 2016).

Tests used:
Cholinesterase = Cholinesterase (Equus caballus, UniProt P81908); assay: Inhibition of equine serum BuChE using ATCI as substrate preincubated for 30 mins followed by substrate addition measured after 5 mins by DTNB-based spectrophotometric analysis
Acetylcholinesterase = Acetylcholinesterase (Electrophorus electricus, UniProt O42275); assay: Inhibition of electric eel AChE using ATCI as substrate preincubated for 30 mins followed by substrate addition measured after 5 mins by DTNB-based spectrophotometric analysis
Chain of Acetylcholinesterase (O42275 whole entry): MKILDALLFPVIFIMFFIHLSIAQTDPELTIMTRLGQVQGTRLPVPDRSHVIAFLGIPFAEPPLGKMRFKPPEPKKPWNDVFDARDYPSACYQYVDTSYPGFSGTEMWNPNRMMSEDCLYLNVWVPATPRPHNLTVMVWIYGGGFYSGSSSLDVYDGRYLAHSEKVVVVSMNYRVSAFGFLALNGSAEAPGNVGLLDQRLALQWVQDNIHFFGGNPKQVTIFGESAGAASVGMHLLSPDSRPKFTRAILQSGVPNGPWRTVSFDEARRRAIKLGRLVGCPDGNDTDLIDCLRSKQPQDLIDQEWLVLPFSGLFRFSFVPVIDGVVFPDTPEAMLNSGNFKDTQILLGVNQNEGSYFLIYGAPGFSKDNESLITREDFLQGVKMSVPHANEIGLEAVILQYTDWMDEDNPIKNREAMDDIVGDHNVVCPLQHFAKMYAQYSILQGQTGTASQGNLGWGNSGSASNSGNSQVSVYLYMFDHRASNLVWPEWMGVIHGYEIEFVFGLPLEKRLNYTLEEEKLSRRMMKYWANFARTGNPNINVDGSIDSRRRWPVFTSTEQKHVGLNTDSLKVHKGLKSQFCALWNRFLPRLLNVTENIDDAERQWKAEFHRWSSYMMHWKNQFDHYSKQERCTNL

[1] = Selectivity index, ratio of IC50 for electric eel AChE to IC50 for equine serum BuChE

Chain of Cholinesterase (P81908 whole entry): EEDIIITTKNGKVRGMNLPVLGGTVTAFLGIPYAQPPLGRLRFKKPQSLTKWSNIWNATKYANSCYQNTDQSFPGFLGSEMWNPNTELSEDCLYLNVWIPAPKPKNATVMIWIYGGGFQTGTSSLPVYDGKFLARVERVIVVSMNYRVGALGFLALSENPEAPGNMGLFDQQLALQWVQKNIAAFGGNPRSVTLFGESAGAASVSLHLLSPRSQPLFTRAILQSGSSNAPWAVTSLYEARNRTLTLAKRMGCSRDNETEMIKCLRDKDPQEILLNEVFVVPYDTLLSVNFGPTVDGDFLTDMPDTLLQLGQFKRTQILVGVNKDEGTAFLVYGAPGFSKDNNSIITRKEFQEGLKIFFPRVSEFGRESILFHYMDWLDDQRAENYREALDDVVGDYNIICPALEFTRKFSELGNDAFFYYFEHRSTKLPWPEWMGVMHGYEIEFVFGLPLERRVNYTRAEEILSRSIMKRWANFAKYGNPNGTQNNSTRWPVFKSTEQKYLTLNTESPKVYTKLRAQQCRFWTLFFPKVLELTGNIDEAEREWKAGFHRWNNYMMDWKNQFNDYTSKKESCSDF

SMILES: O[C@H]1[C@H]2c3cc4c(cc3CN3CCC(=C[C@@H]1O)[C@H]23)OCO4 [LYCORINE]
- IC50 (Cholinesterase): > 200 µM

SMILES: CO[C@H]1C=C2[C@H]3C[N@@](Cc4cc5c(cc43)OCO5)[C@H]2C[C@@H]1O [MONTANINE]
- IC50 (Acetylcholinesterase): > 200 µM
- IC50 (Cholinesterase): > 200 µM

SMILES: CN1CC[C@@H]2C[C@H](O)[C@H]3OC(=O)c4c(cc5c(c4O)OCO5)[C@H]3[C@@H]21
- IC50 (Acetylcholinesterase): 114 µM
- Ratio IC50 [1]: 1.69
- IC50 (Cholinesterase): 67.3 µM

SMILES: O[C@H]1C=C2[C@H]3CN(Cc4cc5c(cc43)OCO5)[C@H]2C[C@@H]1O
- IC50 (Acetylcholinesterase): > 200 µM
- IC50 (Cholinesterase): > 200 µM

SMILES: CO[C@H]1[C@H]2C(=CC[C@@H]1O)[C@H]1CN2Cc2cc3c(cc21)OCO3
- IC50 (Acetylcholinesterase): > 200 µM
- IC50 (Cholinesterase): > 200 µM
